In the Kinase Knowledgebase extract (Sharma et al. 2016):
pIC50: −log10 of the molar value.

Target: PIK3CG (human) (UniProt P48736)
Assay: Inhibition of PIK3CG Kinase Activity

PIK3CG (human), sequence (P48736 whole entry, looked up): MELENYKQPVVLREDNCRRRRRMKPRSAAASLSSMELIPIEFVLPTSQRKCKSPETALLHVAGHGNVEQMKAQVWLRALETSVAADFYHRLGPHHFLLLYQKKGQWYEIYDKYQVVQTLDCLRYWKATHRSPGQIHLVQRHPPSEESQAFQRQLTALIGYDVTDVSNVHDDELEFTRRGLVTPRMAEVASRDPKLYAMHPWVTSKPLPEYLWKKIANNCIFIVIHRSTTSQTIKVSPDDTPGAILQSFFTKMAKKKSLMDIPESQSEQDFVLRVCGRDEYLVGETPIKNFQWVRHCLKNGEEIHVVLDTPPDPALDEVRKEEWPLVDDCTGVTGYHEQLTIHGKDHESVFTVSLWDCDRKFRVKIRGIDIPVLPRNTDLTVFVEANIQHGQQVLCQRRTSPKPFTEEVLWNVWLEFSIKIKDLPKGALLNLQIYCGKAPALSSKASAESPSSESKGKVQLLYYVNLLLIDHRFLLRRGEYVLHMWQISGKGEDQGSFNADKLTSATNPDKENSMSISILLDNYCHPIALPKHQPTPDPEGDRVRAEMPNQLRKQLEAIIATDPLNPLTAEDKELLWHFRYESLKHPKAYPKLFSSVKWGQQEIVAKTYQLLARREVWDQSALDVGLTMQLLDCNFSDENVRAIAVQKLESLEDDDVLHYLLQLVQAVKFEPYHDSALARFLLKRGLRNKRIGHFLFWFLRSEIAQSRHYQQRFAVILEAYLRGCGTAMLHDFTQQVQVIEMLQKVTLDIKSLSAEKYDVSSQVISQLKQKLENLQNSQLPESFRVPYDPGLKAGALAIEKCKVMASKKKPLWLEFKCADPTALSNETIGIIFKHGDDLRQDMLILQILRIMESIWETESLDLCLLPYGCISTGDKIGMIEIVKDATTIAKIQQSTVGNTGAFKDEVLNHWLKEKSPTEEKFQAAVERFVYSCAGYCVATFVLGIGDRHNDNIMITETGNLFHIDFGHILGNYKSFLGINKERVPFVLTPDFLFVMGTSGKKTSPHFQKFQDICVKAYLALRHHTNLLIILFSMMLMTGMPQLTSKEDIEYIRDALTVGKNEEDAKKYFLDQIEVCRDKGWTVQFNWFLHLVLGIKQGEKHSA

pIC50 | SMILES
> 6.22 | CC(=O)Nc1nc2c(s1)-c1c(c(C3CC3)nn1-c1ccc(C(=O)N(C)[C@H]3CC[C@@H](N(C)CC4CC4)CC3)c(F)c1)CC2
> 6.22 | CC(=O)Nc1nc2c(s1)-c1c(c(C3CC3)nn1-c1ccc(C(=O)N[C@@H]3CCN(C4CCCCC4)C3)cc1C)CC2
> 6.22 | CC(=O)Nc1nc2c(s1)-c1c(c(C3CC3)nn1-c1ccc(C(=O)N[C@H]3CCN(C4CCCCC4)C3)cc1F)CC2
> 6.22 | CCN(CC)CCN1CCN(C(=O)c2ccc(-n3nc(C4CC4)c4c3-c3sc(NC(C)=O)nc3CC4)cc2Cl)CC1
> 6.22 | CC(=O)Nc1nc2c(s1)-c1c(c(C3CC3)nn1-c1ccc(C(=O)N(C)C3CCN(C)CC3)cc1Cl)CC2
> 6.22 | CC(=O)Nc1nc2c(s1)-c1c(c(C3CC3)nn1-c1ccc(C(=O)NCC3CCN(C4CCCC4)CC3)c(Cl)c1)CC2
> 6.22 | CC(=O)Nc1nc2c(s1)-c1c(c(C3CC3)nn1-c1ccc(C(=O)N(C)[C@@H]3CCN(C4CCCC4)C3)cc1Cl)CC2
> 6.22 | CC(=O)Nc1nc2c(s1)-c1c(c(C3CCCC3)nn1-c1ccc(C(=O)NC3CCN(C(C)C)CC3)cc1Cl)CC2
> 6.22 | CC(=O)Nc1nc2c(s1)-c1c(c(C3CC3)nn1-c1ccc(N(C)C(=O)C3CCN(C4CCCC4)CC3)cc1Cl)CC2
> 6.22 | CC(=O)Nc1nc2c(s1)-c1c(c(C3(C)CC3)nn1-c1ccccc1Cl)CC2
> 6.22 | CC(=O)Nc1nc2c(s1)-c1c(c(C3CC3)nn1-c1ccc(C(=O)NC3CCN(CC4CCCCC4)CC3)cc1F)CC2
> 6.22 | CCN(C(=O)c1ccc(-n2nc(C3CC3)c3c2-c2sc(NC(C)=O)nc2CC3)c(Cl)c1)[C@H]1CC[C@@H](N2CCCC2)CC1
> 6.22 | CC(=O)Nc1nc2c(s1)-c1c(c(C3CC3)nn1-c1ccc(C(=O)N(C)[C@@H]3CCN(CC4CCCC4)C3)cc1F)CC2
> 6.22 | CC(=O)Nc1nc2c(s1)-c1c(c(C3CC3)nn1-c1ccc(C(=O)N[C@@H]3CCN(CC4CCCC4)C3)c(F)c1)CC2
> 6.22 | COc1cc(-n2nc(C3CC3)c3c2-c2sc(NC(C)=O)nc2CC3)ccc1C(=O)N(C)C1CCN(C2CCCC2)CC1
> 6.22 | CC(=O)Nc1nc2c(s1)-c1c(c(C3CCCC3)nn1-c1ccc(C(=O)N[C@H]3CC[C@@H](N4CCCC4)CC3)cc1Cl)CC2
> 6.22 | CC(=O)Nc1nc2c(s1)-c1c(c(C3CCCC3)nn1-c1ccc(C(=O)NC3CCN(CC4CCCC4)CC3)cc1Cl)CC2
> 6.22 | CC(=O)Nc1nc2c(s1)-c1c(c(C3(C)CC3)nn1-c1ccc(C(=O)NC3CCN(CC4CCCC4)CC3)cc1Cl)CC2
> 6.22 | CC(=O)Nc1nc2c(s1)-c1c(c(C3CC3)nn1-c1ccc(C(=O)N[C@H]3CC[C@@H](N4CCCCC4)CC3)c(C)c1)CC2
> 6.22 | CC(=O)Nc1nc2c(s1)-c1c(c(C3(C)CC3)nn1-c1ccc(C(=O)NC3CCN(C(C)C)CC3)cc1Cl)CC2
> 6.22 | CC(=O)Nc1nc2c(s1)-c1c(c(C3CC3)nn1-c1ccc(C(=O)N[C@H]3CC[C@@H](C(N)=O)CC3)cc1Cl)CC2
> 6.22 | CC(=O)Nc1nc2c(s1)-c1c(c(C3CCCC3)nn1-c1ccc(C(=O)N[C@H]3CC[C@@H](N4CCCCC4)CC3)cc1Cl)CC2
> 6.22 | CC(=O)Nc1nc2c(s1)-c1c(c(C3CC3)nn1-c1ccc(C(=O)N3CC[C@@H](CN4CCCC4)C3)c(Cl)c1)CC2
> 6.22 | CCCN1CC[C@@H](NC(=O)c2ccc(-n3nc(C4CC4)c4c3-c3sc(NC(C)=O)nc3CC4)cc2C)C1
> 6.22 | CCCN1CCC(NC(=O)C2CCC(n3nc(C4CC4)c4c3-c3sc(NC(C)=O)nc3CC4)CC2)CC1 (centres undefined)

pIC50 | SMILES
> 6.22 | CC(=O)Nc1nc2c(s1)-c1c(c(C3CCC3)nn1-c1ccc(C(=O)NC3CCN(CC4CCCC4)CC3)cc1Cl)CC2
> 6.22 | CC(=O)Nc1nc2c(s1)-c1c(c(C3CC3)nn1-c1ccc(C(=O)N(C)[C@@H]3CCN(CC4CCCC4)C3)c(Cl)c1)CC2
> 6.22 | CCCN1CC[C@@H](NC(=O)c2ccc(-n3nc(C4CC4)c4c3-c3sc(NC(C)=O)nc3CC4)c(C)c2)C1
> 6.22 | CC(=O)Nc1nc2c(s1)-c1c(c(C3CCCC3)nn1-c1ccc(C(=O)NC3CCN(C4CCOCC4)CC3)cc1Cl)CC2
> 6.22 | CC(=O)Nc1nc2c(s1)-c1c(c(C3CC3)nn1-c1ccc(C(=O)N[C@H]3CC[C@@H](N(C)CC4CCCC4)CC3)cc1F)CC2
> 6.22 | CC(=O)Nc1nc2c(s1)-c1c(c(C3CC3)nn1-c1ccc(C(=O)N(C)[C@H]3CC[C@@H](N4CCCCC4)CC3)cc1F)CC2
> 6.22 | CC(=O)Nc1nc2c(s1)-c1c(c(C3CC3)nn1-c1ccc(C(=O)N[C@@H]3CCN(CC4CCCC4)C3)c(C)c1)CC2
> 6.22 | CC(=O)Nc1nc2c(s1)-c1c(c(C3CC3)nn1-c1ccc(C(=O)NC3CCN(CC4CCCCC4)CC3)c(F)c1)CC2
> 6.22 | CC(=O)Nc1nc2c(s1)-c1c(c(C3CC3)nn1-c1ccc(C(=O)N[C@H]3CC[C@@H](N(C)CC4CC4)CC3)cc1C)CC2
> 6.22 | CCCN1CCC(NC(=O)c2ccc(-n3nc(C4(C)CC4)c4c3-c3sc(NC(C)=O)nc3CC4)c(Cl)c2)CC1
> 6.22 | CC(=O)Nc1nc2c(s1)-c1c(c(C3CC3)nn1-c1ccc(C(=O)N(C)C3CCN(C4CCCC4)CC3)cc1Cl)CC2
> 6.22 | CC(=O)Nc1nc2c(s1)-c1c(c(C3CC3)nn1-c1ccc(C(=O)N(C)C3CCN(CC4CCCC4)CC3)c(Cl)c1)CC2
> 6.22 | CC(=O)Nc1nc2c(s1)-c1c(c(C3CC3)nn1-c1ccc(C(=O)N[C@H]3CC[C@@H](N4CCCCC4)CC3)cc1F)CC2
> 6.22 | CCCN1CCC(NC(=O)c2ccc(-n3nc(C4CC4)c4c3-c3sc(NC(C)=O)nc3CC4)cc2C)CC1
> 6.22 | CC(=O)Nc1nc2c(s1)-c1c(c(C3CC3)nn1-c1ccc(C(=O)N3CCN(C4CCCC4)CC3)c(Cl)c1)CC2
> 6.22 | CC(=O)Nc1nc2c(s1)-c1c(c(C3CC3)nn1C1CCC(C(=O)N(C)[C@H]3CC[C@@H](N4CCCC4)CC3)CC1)CC2 (some centres undefined)
> 6.22 | CCN(C(=O)c1ccc(-n2nc(C3CC3)c3c2-c2sc(NC(C)=O)nc2CC3)c(F)c1)[C@H]1CC[C@@H](N2CCCC2)CC1
> 6.22 | CC(=O)Nc1nc2c(s1)-c1c(c(C3CC3)nn1[C@H]1CC[C@@H](C(=O)NC3CCN(C4CCCC4)CC3)CC1)CC2
> 6.22 | CC(=O)Nc1nc2c(s1)-c1c(c(C3CC3)nn1-c1ccc(C(=O)N(C)[C@H]3CC[C@@H](N(C)CC4CCCC4)CC3)c(C)c1)CC2
> 6.22 | CC(=O)Nc1nc2c(s1)-c1c(c(C3CC3)nn1C1CCN(C(=O)C3CCN(CC4CCCCC4)CC3)CC1)CC2
> 6.22 | CC(=O)Nc1nc2c(s1)-c1c(c(C3CC3)nn1-c1ccc(C(=O)N[C@@H]3CCN(C4CCCC4)C3)cc1C)CC2
> 6.22 | CC(=O)Nc1nc2c(s1)-c1c(c(C3CC3)nn1-c1ccc(C(=O)NC3CCN(CC4CCCC4)CC3)cc1Cl)CC2
> 6.22 | CC(=O)Nc1nc2c(s1)-c1c(c(C3CC3)nn1-c1ccc(C(=O)N(C)C3CCC(N4CCCCC4)CC3)c(F)c1)CC2 (centres undefined)
> 6.22 | CC(=O)Nc1nc2c(s1)-c1c(c(C3CC3)nn1-c1ccc(C(=O)N(C)[C@H]3CC[C@@H](N4CCCCC4)CC3)cc1Cl)CC2
> 6.22 | CC(=O)Nc1nc2c(s1)-c1c(c(C3(C)CC3)nn1-c1ccc(C(=O)N(C)[C@H]3CC[C@@H](N4CCCC4)CC3)cc1Cl)CC2

pIC50 | SMILES
> 6.22 | CC(=O)Nc1nc2c(s1)-c1c(c(C3CC3)nn1C1CCC(C(=O)NC3CCN(C4CCCC4)CC3)CC1)CC2 (centres undefined)
> 6.22 | CC(=O)Nc1nc2c(s1)-c1c(c(C3CC3)nn1-c1ccc(C(=O)N(C)[C@@H]3CCN(CC4CCCC4)C3)cc1C)CC2
> 6.22 | CC(=O)Nc1nc2c(s1)-c1c(c(C3CC3)nn1-c1ccc(C(=O)NC3CCN(CC4CCCC4)CC3)cc1C)CC2
> 6.22 | CC(=O)Nc1nc2c(s1)-c1c(c(C3CC3)nn1-c1ccc(C(=O)NC[C@@H]3CCN(C4CCCC4)C3)c(Cl)c1)CC2
> 6.22 | CC(=O)Nc1nc2c(s1)-c1c(c(C3CC3)nn1-c1ccc(C(=O)N(C)[C@@H]3CCN(CC4CCCC4)C3)cc1Cl)CC2
> 6.22 | CC(=O)Nc1nc2c(s1)-c1c(c(C3CC3)nn1-c1ccc(NC(=O)[C@H]3CC[C@@H](N4CCCC4)CC3)cc1Cl)CC2
> 6.22 | CC(=O)Nc1nc2c(s1)-c1c(c(C3CC3)nn1C1CCN(C(=O)N3CCN(C(C)C)CC3)CC1)CC2
> 6.22 | CNC(=O)c1ccc(-n2nc(C3CCC3)c3c2-c2sc(NC(C)=O)nc2CC3)c(Cl)c1
> 6.22 | CC(=O)Nc1nc2c(s1)-c1c(c(C3CC3)nn1-c1ccc(C(=O)N(C)C3CCC(N(C)CC4CCCC4)CC3)c(F)c1)CC2 (centres undefined)
> 6.22 | CC(=O)Nc1nc2c(s1)-c1c(c(C3CC3)nn1-c1ccc(C(=O)N(C)[C@H]3CC[C@@H](N4CCCCC4)CC3)c(C)c1)CC2
> 6.22 | CCCN1CCC(NC(=O)c2ccc(-n3nc(C4CC4)c4c3-c3sc(NC(C)=O)nc3CC4)cc2F)CC1
> 6.22 | CC(=O)Nc1nc2c(s1)-c1c(c(C3CC3)nn1-c1ccc(C(=O)N(C)[C@H]3CC[C@@H](N4CCCCC4)CC3)cc1C)CC2
> 6.22 | CC(=O)Nc1nc2c(s1)-c1c(c(C3CC3)nn1-c1ccc(C(=O)N(C)[C@H]3CC[C@@H](N(C)CC4CC4)CC3)c(C)c1)CC2
> 6.22 | CC(=O)Nc1nc2c(s1)-c1c(c(C3CC3)nn1-c1ccccc1C)CC2
> 6.22 | CC(=O)Nc1nc2c(s1)-c1c(c(C3CC3)nn1-c1ccc(C(=O)N[C@@H]3CCN(C4CCCC4)C3)cc1F)CC2
> 6.22 | CC(=O)Nc1nc2c(s1)-c1c(c(C3CC3)nn1-c1ccc(C(=O)N[C@H]3CC[C@@H](N4CCCCC4)CC3)c(Cl)c1)CC2
> 6.22 | CC(=O)Nc1nc2c(s1)-c1c(c(C3CC3)nn1-c1ccccc1Cl)CC2
> 6.22 | CC(=O)Nc1nc2c(s1)-c1c(c(C3CC3)nn1-c1ccc(C(=O)N(C)[C@@H]3CCN(CC4CCCC4)C3)c(C)c1)CC2
> 6.22 | CCN(C(=O)c1ccc(-n2nc(C3CC3)c3c2-c2sc(NC(C)=O)nc2CC3)cc1C)[C@H]1CC[C@@H](N2CCCC2)CC1
> 6.22 | CC(=O)Nc1nc2c(s1)-c1c(c(C3CC3)nn1-c1ccc(C(=O)N[C@H]3CC[C@@H](N(C)CC4CC4)CC3)cc1Cl)CC2
> 6.22 | CC(=O)Nc1nc2c(s1)-c1c(c(C3CCC3)nn1-c1ccc(C(=O)NC3CCN(C)CC3)cc1Cl)CC2
> 6.22 | CC(=O)Nc1nc2c(s1)-c1c(c(C3CC3)nn1-c1ccc(C(=O)N(C)[C@@H]3CCN(C4CCCC4)C3)cc1F)CC2
> 7.22 | CC(=O)Nc1nc2c(s1)-c1c(c(C3CC3)nn1-c1ccc(O)cc1Cl)CC2

SMILES | pIC50
CC(=O)Nc1nc2c(s1)-c1c(c(C3CC3)nn1-c1ccc(C(=O)N[C@@H]3CN4CCC3CC4)c(Cl)c1)CC2 | > 6.22
